Data on 1 molecule can be found in ChEMBL document CHEMBL4257559, “Protective effects of astragaloside IV against hypoxic pulmonary hypertension” (Medchemcomm, 2018).

Active and inactive are the calls of the source. The rule behind the calls is not given here.

The subject of data set [1] is Rattus norvegicus. The data set is described as follows: Protective effect against chronic hypoxia-induced pulmonary hypertension in Sprague-Dawley rat assessed as decrease in serum endothelin levels at 10 mg/kg, ip administered every other day at 10 mins prior to induction of hypoxia and measured after 2 weeks by ELISA. In kind it is functional, organism-based. In general terms: In an ELISA, binding on a coated surface is turned into a signal by an enzyme label.

In data set [2] the test system is Rattus norvegicus. The data set is described as follows: Protective effect against chronic hypoxia-induced pulmonary hypertension in Sprague-Dawley rat assessed as decrease in right ventricular pressure at 10 mg/kg, ip administered every other day at 10 mins prior to induction of hypoxia and measured after 2 weeks. In kind it is functional, organism-based.
A short description of data set [3]: Tmax in chronic hypoxia-induced pulmonary hypertension model of Sprague-Dawley rat at 50 mg/kg, ip after 30 to 600 mins by HPLC analysis. In kind it is ADME, organism-based. The following applies: in vivo.
Data set [4] relates to Rattus norvegicus. The data set is described as follows: Protective effect against chronic hypoxia-induced pulmonary hypertension in ip dosed Sprague-Dawley rat assessed as decrease in serum IL-6 levels administered every other day at 10 mins prior to induction of hypoxia and measured after 2 weeks by ELISA. Type of data set: functional, organism-based.
Data set [5] deals with Rattus norvegicus. The data set is described as follows: Protective effect against chronic hypoxia-induced pulmonary hypertension in Sprague-Dawley rat assessed as decrease in serum angiotensin-2 levels at 10 mg/kg, ip administered every other day at 10 mins prior to induction of hypoxia and measured after 2 weeks by ELISA. Type of data set: functional, organism-based.
Data set [6] deals with Rattus norvegicus. The data set is described as follows: Protective effect against chronic hypoxia-induced pulmonary hypertension in Sprague-Dawley rat assessed as decrease in mean pulmonary arterial pressure at 10 mg/kg, ip administered every other day at 10 mins prior to induction of hypoxia and measured after 2 weeks. In kind it is functional, organism-based.
The species entered for data set [7] is Rattus norvegicus. The data set is described as follows: Inhibition of hypoxia-induced proliferation of Sprague-Dawley rat PASMC at 50 uM preincubated for 10 mins followed by hypoxia induction and measured after 24 hrs by CCK8 assay. In kind it is functional. (In general: Tetrazolium assays rely on reduction of a dye to a coloured formazan, in cell work by metabolically active cells.)

Data set [8] in a line: Cmax in chronic hypoxia-induced pulmonary hypertension model of Sprague-Dawley rat at 50 mg/kg, ip after 30 to 600 mins by HPLC analysis. Type of data set: ADME, organism-based. Details: dose 50 mg/kg, route intraperitoneal. To be noted: in vivo.
The test system of data set [9] is Rattus norvegicus. The experiment in a line: Protective effect against chronic hypoxia-induced pulmonary hypertension in Sprague-Dawley rat assessed as decrease in serum endothelin levels at 50 mg/kg, ip administered every other day at 10 mins prior to induction of hypoxia and measured after 2 weeks by ELISA. In kind it is functional, organism-based.
Data set [10] has as its system Rattus norvegicus. The experiment in a line: Protective effect against chronic hypoxia-induced pulmonary hypertension in Sprague-Dawley rat assessed as decrease in mean pulmonary arterial pressure at 50 mg/kg, ip administered every other day at 10 mins prior to induction of hypoxia and measured after 2 weeks. Type of data set: functional, organism-based.
Data set [11] concerns Pulmonary artery. The experiment in a line: Protective effect against chronic hypoxia-induced pulmonary hypertension in Sprague-Dawley rat pulmonary arterial ring assessed as increase in relaxation of pulmonary artery ring at 10 uM treated after phenylephrine-induced vasoconstriction measured at 10 mins relative to control. In kind it is functional. Details: scale not given: the % may be the effect or the level left.

Data set [12] relates to Rattus norvegicus. The experiment in a line: Protective effect against chronic hypoxia-induced pulmonary hypertension in ip dosed Sprague-Dawley rat assessed as decrease in serum TNF-alpha levels administered every other day at 10 mins prior to induction of hypoxia and measured after 2 weeks by ELISA. In kind it is functional, organism-based.
The test system of data set [13] is Rattus norvegicus. The experiment in a line: Protective effect against chronic hypoxia-induced pulmonary hypertension in Sprague-Dawley rat assessed as decrease in index of right ventricular hypertrophy by measuring ratio of right ventricular/(left ventricular + septum) weight at 50 mg/kg, ip administered every other day at 10 mins prior to induction of hypoxia and measured after 2 weeks. Type of data set: functional, organism-based.

Data set [14] concerns Rattus norvegicus. The data set is described as follows: Protective effect against chronic hypoxia-induced pulmonary hypertension in Sprague-Dawley rat assessed as decrease in index of right ventricular hypertrophy by measuring ratio of right ventricular/(left ventricular + septum) weight at 10 mg/kg, ip administered every other day at 10 mins prior to induction of hypoxia and measured after 2 weeks. In kind it is functional, organism-based.

For data set [15], the species on record is Rattus norvegicus. The experiment in a line: Inhibition of hypoxia-induced proliferation of Sprague-Dawley rat PASMC at 10 uM preincubated for 10 mins followed by hypoxia induction and measured after 24 hrs by CCK8 assay. Type of data set: functional.
The nature of data set [16]: Tmax in chronic hypoxia-induced pulmonary hypertension model of Sprague-Dawley rat at 10 mg/kg, ip after 30 to 600 mins by HPLC analysis. In kind it is ADME, organism-based. The following applies: in vivo.
Data set [17] relates to Pulmonary artery. The data set is described as follows: Protective effect against chronic hypoxia-induced pulmonary hypertension in Sprague-Dawley rat pulmonary arterial ring assessed as increase in relaxation of pulmonary artery ring at 50 uM treated after phenylephrine-induced vasoconstriction measured at 1 min. Type of data set: functional, tissue-based.
In data set [18] the test system is Rattus norvegicus. The data set is described as follows: Protective effect against chronic hypoxia-induced pulmonary hypertension in Sprague-Dawley rat assessed as decrease in serum angiotensin-2 levels at 50 mg/kg, ip administered every other day at 10 mins prior to induction of hypoxia and measured after 2 weeks by ELISA. Type of data set: functional, organism-based.

Data set [19] is described as follows: Cmax in chronic hypoxia-induced pulmonary hypertension model of Sprague-Dawley rat at 10 mg/kg, ip after 30 to 600 mins by HPLC analysis. Type of data set: ADME, organism-based. Details: dose 10 mg/kg, route intraperitoneal. The following applies: in vivo.
The subject of data set [20] is Pulmonary artery. The data set is described as follows: Protective effect against chronic hypoxia-induced pulmonary hypertension in Sprague-Dawley rat pulmonary arterial ring assessed as increase in relaxation of pulmonary artery ring at 50 uM treated after phenylephrine-induced vasoconstriction measured at 10 mins relative to control. In kind it is functional. The arrangement: scale not given: the % may be the effect or the level left.

In data set [21] the test system is Pulmonary artery. The experiment in a line: Protective effect against chronic hypoxia-induced pulmonary hypertension in Sprague-Dawley rat pulmonary arterial ring assessed as increase in relaxation of pulmonary artery ring at 10 uM treated after phenylephrine-induced vasoconstriction measured at 1 min. In kind it is functional, tissue-based.
The subject of data set [22] is Rattus norvegicus. The experiment in a line: Protective effect against chronic hypoxia-induced pulmonary hypertension in Sprague-Dawley rat assessed as decrease in right ventricular pressure at 50 mg/kg, ip administered every other day at 10 mins prior to induction of hypoxia and measured after 2 weeks. In kind it is functional, organism-based.

As usually defined, the Tmax is the time from dosing to the highest level. What is called Cmax is the peak of the concentration-time curve. As to `CC(C)(O)[C@@H]1CC[C@](C)([C@H]2[C@@H](O)C[C@@]3(C)[C@@H]4C[C@H](O[C@@H]5O[C@H](CO)[C@@H](O)[C@H](O)[C@H]5O)[C@H]5C(C)(C)[C@@H](O[C@@H]6OC[C@@H](O)[C@H](O)[C@H]6O)CC[C@@]56C[C@@]46CC[C@]23C)O1`, the result in the data set with Rattus norvegicus [1], in the data set with Rattus norvegicus [2], in the data set on Rattus norvegicus [5], in the data set with Rattus norvegicus [6], with Rattus norvegicus [10] and in the data set on Rattus norvegicus [13] was inactive. The outcome with Rattus norvegicus [14] and in the data set with Rattus norvegicus [22] was inactive. For the same molecule, the time of peak concentration (Tmax) in [3] and in data set [16] was 1 h throughout. Besides, the Activity entry with Rattus norvegicus [4] is “Dose-dependent effect”; in the data set with Pulmonary artery [11], 9.42%; in the data set with Rattus norvegicus [12], “Dose-dependent effect”; in the data set with Pulmonary artery [20], 21.194%. Besides, the inhibition entry in the data set filed under Rattus norvegicus [7] was “Active”. Besides, the Cmax stood at 25200 ng/mL in data set [8] and 7270 ng/mL in data set [19]. Moreover, the outcome in the data set with Rattus norvegicus [9], in the data set with Pulmonary artery [17], in the data set with Rattus norvegicus [18] and in the data set with Pulmonary artery [21] was Active. The inhibition result in the data set listed under Rattus norvegicus [15] is “inactive”.
